Measured values from ChEMBL document CHEMBL1154793, “The lecanindoles, nonsteroidal progestins from the terrestrial fungus Verticillium lecanii 6144” (J Nat Prod, 2009).

Assays:
Androgen receptor [1] = molecular target: T1, Androgen receptor (Homo sapiens, UniProt P10275)
T1 sequence (P10275 whole entry): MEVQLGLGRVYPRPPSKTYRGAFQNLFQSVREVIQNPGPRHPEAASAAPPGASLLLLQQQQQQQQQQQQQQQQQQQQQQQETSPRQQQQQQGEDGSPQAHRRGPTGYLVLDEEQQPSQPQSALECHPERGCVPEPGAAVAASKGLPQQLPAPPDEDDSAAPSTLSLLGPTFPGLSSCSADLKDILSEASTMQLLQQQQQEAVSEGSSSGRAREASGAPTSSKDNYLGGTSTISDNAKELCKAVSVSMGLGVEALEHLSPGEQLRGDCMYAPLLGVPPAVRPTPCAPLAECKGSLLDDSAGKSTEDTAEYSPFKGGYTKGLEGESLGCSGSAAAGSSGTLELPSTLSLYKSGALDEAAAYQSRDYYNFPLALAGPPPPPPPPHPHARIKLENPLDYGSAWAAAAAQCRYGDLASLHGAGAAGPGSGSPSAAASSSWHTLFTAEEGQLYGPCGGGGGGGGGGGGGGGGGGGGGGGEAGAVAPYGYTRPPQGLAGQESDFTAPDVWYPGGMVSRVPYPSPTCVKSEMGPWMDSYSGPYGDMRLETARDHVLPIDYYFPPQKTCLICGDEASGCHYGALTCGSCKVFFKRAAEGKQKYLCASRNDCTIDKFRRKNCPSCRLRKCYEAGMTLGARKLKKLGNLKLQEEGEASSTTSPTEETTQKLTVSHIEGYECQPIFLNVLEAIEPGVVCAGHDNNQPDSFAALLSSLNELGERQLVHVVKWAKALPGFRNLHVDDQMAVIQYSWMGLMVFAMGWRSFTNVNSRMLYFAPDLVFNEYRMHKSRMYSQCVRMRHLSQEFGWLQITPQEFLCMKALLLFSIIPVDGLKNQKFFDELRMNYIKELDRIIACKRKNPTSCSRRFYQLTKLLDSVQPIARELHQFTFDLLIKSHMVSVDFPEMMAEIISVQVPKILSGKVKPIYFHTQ

[2] = molecular target: T2, Mineralocorticoid receptor (Homo sapiens) (UniProt P08235); experiment: Antagonist activity at mineralocorticoid receptor ligand binding domain expressed in african green monkey COS7 cells co-transfected with Gal4-LBD by luciferase reporter gene assay relative to control; type: cell-based; design: scale not given: the % may be the effect or the level left; conditions: COS-7
T2 sequence (whole entry): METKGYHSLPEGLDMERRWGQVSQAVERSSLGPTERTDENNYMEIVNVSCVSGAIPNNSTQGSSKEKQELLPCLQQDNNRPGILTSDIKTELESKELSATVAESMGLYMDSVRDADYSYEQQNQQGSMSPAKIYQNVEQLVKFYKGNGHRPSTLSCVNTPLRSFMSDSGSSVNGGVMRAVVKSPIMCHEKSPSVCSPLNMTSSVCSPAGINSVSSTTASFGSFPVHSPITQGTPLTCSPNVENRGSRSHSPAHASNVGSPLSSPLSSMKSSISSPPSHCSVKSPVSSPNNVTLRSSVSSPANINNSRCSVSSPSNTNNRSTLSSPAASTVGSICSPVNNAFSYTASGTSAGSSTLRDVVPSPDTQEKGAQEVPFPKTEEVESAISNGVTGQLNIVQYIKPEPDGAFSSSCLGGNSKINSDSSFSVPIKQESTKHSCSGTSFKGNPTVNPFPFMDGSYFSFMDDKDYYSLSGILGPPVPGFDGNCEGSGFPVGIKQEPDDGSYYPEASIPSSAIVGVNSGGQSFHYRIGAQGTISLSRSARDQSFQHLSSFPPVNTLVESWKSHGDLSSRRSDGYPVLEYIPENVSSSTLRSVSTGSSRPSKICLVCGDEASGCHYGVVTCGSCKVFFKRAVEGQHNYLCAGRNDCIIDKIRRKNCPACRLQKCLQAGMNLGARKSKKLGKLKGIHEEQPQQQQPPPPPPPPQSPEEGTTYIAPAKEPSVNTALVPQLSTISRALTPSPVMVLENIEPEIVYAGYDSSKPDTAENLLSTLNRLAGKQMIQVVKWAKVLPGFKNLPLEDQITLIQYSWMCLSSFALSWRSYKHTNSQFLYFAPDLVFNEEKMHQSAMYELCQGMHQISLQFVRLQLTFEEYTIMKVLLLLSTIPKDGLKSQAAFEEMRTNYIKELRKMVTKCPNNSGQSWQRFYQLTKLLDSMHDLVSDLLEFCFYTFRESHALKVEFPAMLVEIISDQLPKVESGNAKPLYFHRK

[3] = molecular target: T3, Androgen receptor (Homo sapiens) (UniProt P10275); experiment: Antagonist activity at androgen receptor ligand binding domain expressed in african green monkey COS7 cells co-transfected with Gal4-LBD by luciferase reporter gene assay relative to control; type: cell-based; design: scale not given: the % may be the effect or the level left; conditions: COS-7
T3 sequence (whole entry): T1 sequence (P10275 whole entry)

Glucocorticoid receptor = molecular target: T4, Glucocorticoid receptor (Homo sapiens, UniProt P04150); experiment: Agonist activity at glucocorticoid receptor ligand binding domain expressed in african green monkey COS7 cells co-transfected with Gal4-LBD up to 10 uM by luciferase reporter gene assay; type: cell-based; conditions: cos-7
T4 sequence (P04150 whole entry): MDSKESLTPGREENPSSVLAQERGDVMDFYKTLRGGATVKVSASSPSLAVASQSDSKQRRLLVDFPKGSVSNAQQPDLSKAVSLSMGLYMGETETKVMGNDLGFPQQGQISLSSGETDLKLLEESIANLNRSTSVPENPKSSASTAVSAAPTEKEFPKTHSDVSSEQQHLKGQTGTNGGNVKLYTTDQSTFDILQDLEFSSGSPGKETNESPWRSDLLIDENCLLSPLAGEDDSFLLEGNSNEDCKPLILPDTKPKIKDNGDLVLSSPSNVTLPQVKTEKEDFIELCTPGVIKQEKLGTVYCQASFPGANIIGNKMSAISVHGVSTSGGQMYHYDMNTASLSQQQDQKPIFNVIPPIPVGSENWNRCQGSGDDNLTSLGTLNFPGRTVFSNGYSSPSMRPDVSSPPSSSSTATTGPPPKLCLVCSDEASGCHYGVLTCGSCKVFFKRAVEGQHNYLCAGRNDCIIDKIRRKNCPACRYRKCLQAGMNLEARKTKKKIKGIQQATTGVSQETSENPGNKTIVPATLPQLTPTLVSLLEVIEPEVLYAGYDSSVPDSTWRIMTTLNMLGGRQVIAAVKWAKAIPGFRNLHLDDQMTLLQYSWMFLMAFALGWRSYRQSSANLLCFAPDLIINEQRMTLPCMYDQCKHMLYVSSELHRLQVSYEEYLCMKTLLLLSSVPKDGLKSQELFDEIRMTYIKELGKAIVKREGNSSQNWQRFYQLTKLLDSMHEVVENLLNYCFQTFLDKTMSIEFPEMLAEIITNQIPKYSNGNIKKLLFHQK

Androgen receptor [4] = molecular target: T1, Androgen receptor; experiment: Agonist activity at androgen receptor ligand binding domain expressed in african green monkey COS7 cells co-transfected with Gal4-DBD up to 10 uM by luciferase reporter gene assay; type: cell-based; conditions: cos-7

Molecule `CC1(C)[C@H](O)CC[C@]2(C)[C@@]3(C)c4[nH]c5ccccc5c4C[C@@H]3CC[C@@]12O` [LECANINDOLE D] has an IC50 (Androgen receptor [1]) of over 10 µM, an Activity [2] of 82% and an Activity [3] of 41%. The EC50 (Glucocorticoid receptor) was “Not Active” and the EC50 (Androgen receptor [4]) was “Not Active”.
With `CC1(C)C(=O)CC[C@]2(C)[C@@]3(C)c4[nH]c5ccccc5c4C[C@@H]3CC[C@@]12O` [LECANINDOLE B] the IC50 (Androgen receptor [1]) was over 10 µM, the Activity [2] was 47% and the Activity [3] was 32%. The EC50 (Glucocorticoid receptor) was “Not Active” and the EC50 (Androgen receptor [4]) was “Not Active”.
